In the test the test system is Cavia porcellus. Put plainly: Anti-cardiac arrhythmia activity in anaesthetised guinea pig assessed as cumulative dose inducing prolongation of monophasic action potential duration by 10% from baseline administered as first dose infusion in 0.2 mL/kg into jugular vein catheter for 30 secs followed by next dosing after 5 mins for 6 to 10 consecutive times by electrophysiology based assay. In kind it is functional.
Consider `N#Cc1ccc(OCCCN2CC3CN(CCCNS(=O)(=O)Cc4ccccc4)CC(C2)O3)cc1`, for which the D10 was over 5.5 mg/kg.
Take `N#Cc1ccc(S(=O)(=O)NCCN2CC3CN(CCOc4c(F)cccc4F)CC(C2)O3)cc1`: the D10 is over 5.5 mg/kg.
On to `CN(CCN1CC2CN(CCc3cccc(F)c3)CC(C1)O2)S(=O)(=O)c1ccc(C#N)cc1`, for which the D10 was over 5.5 mg/kg.
Consider `N#Cc1ccc(S(=O)(=O)NCCCN2CC3CN(CCc4ccc(F)c(F)c4)CC(C2)O3)cc1`, for which the D10 was over 5.5 mg/kg.
As to `N#Cc1ccc(S(=O)(=O)NCCN2CC3CN(CCOc4ccc(C#N)cc4F)CC(C2)O3)cc1`, the D10 is over 5.5 mg/kg.
On to `N#Cc1ccc(S(=O)(=O)NCCN2CC3CN(Cc4noc5ccccc45)CC(C2)O3)cc1`, for which the D10 was over 5.5 mg/kg.
For `N#Cc1ccc(S(=O)(=O)NCCN2CC3CN(CCOc4ccc(F)cc4)CC(C2)O3)cc1`, the D10 was over 5.5 mg/kg.
As for `N#Cc1ccc(S(=O)(=O)NCCN2CC3CN(Cc4ccc(C#N)cc4F)CC(C2)O3)cc1`, the D10 was over 5.5 mg/kg.
Regarding `CC(C)(C)OC(=O)NCCN1CC2CN(CCNS(=O)(=O)c3ccc(F)cc3)CC(C1)O2`, the D10 was over 5.5 mg/kg.
For `N#Cc1ccc(OCCN2CC3CN(CCCNS(=O)(=O)c4ccc(F)cc4)CC(C2)O3)c(F)c1`, the D10 was over 5.5 mg/kg.
Regarding `N#Cc1ccc(S(=O)(=O)NCCCN2CC3CN(CCc4ccccc4F)CC(C2)O3)cc1`, the D10 was over 5.5 mg/kg.
Take `CN(CCN1CC2CN(CCc3ccc(F)cc3F)CC(C1)O2)S(=O)(=O)c1ccc(C#N)cc1`: the D10 was over 5.5 mg/kg.
Regarding `Cc1[nH]c2ccccc2c1CN1CC2CN(CCNS(=O)(=O)c3ccc(C#N)cc3)CC(C1)O2`, the D10 is over 5.5 mg/kg.
In the case of `CS(=O)(=O)NCCN1CC2CN(CCOc3ccc(C#N)cc3)CC(C1)O2`, the D10 is over 5.5 mg/kg.
In the case of `N#Cc1ccc(S(=O)(=O)NCCN2CC3CN(CCc4ccccc4)CC(C2)O3)cc1`, the D10 is over 5.5 mg/kg.
As to `N#Cc1ccc(CNS(=O)(=O)CCN2CC3CN(Cc4ccccc4C#N)CC(C2)O3)cc1`, the D10 was over 5.5 mg/kg.
In the case of `N#Cc1ccc(S(=O)(=O)NCCN2CC3CN(CCCOc4c(F)cc(C#N)cc4F)CC(C2)O3)cc1`, the D10 is over 5.5 mg/kg.
Regarding `Cc1cc(C)n(CCN2CC3CN(CCNS(=O)(=O)c4ccc(C#N)cc4)CC(C2)O3)n1`, the D10 is over 5.5 mg/kg.
With `N#Cc1ccc(S(=O)(=O)NCCN2CC3CN(Cc4ccc(F)cc4)CC(C2)O3)cc1`, the D10 is over 5.5 mg/kg.
Turning to `N#Cc1ccc(S(=O)(=O)NCCN2CC3CN(CCCOc4cccc(F)c4)CC(C2)O3)cc1`, the D10 was over 5.5 mg/kg.
As for `N#Cc1ccc(OCCCN2CC3CN(CCCNS(=O)(=O)c4ccccc4)CC(C2)O3)cc1`, the D10 was over 5.5 mg/kg.
Then `Cc1noc(C)c1S(=O)(=O)NCCN1CC2CN(CCCOc3ccc(C#N)cc3)CC(C1)O2`, with over 5.5 mg/kg; and `N#Cc1ccc(OCCN2CC3CN(CCNS(=O)(=O)c4ccccc4C#N)CC(C2)O3)cc1`, with over 5.5 mg/kg; and `N#Cc1ccc(OCCN2CC3CN(CCNS(=O)(=O)c4ccc(F)cc4)CC(C2)O3)cc1`, with over 5.5 mg/kg.
Consider `N#Cc1ccc(S(=O)(=O)NCCCN2CC3CN(Cc4ccc(F)cc4)CC(C2)O3)cc1`, for which the D10 was over 5.5 mg/kg.
Then `N#Cc1ccc(OCCCN2CC3CN(CCNS(=O)(=O)c4ccccc4C#N)CC(C2)O3)cc1`, with over 5.5 mg/kg.
Then `N#Cc1ccc(OCCN2CC3CN(CCCNS(=O)(=O)c4ccccc4)CC(C2)O3)cc1`, with over 5.5 mg/kg; and `Cc1noc(C)c1S(=O)(=O)NCCCN1CC2CN(Cc3ccc(C#N)cc3)CC(C1)O2`, with over 5.5 mg/kg; and `N#Cc1ccc(S(=O)(=O)NCCN2CC3CN(CCc4ccc(F)c(F)c4)CC(C2)O3)cc1`, with over 5.5 mg/kg.
For the compound `CN(CCN1CC2CN(CCOc3c(F)cccc3F)CC(C1)O2)S(=O)(=O)c1ccc(C#N)cc1`, the D10 is over 5.5 mg/kg.
Regarding `N#Cc1ccc(S(=O)(=O)NCCN2CC3CN(CCCOc4ccc(F)cc4F)CC(C2)O3)cc1`, the D10 was over 5.5 mg/kg.
With `CN(CCN1CC2CN(CCc3ccccc3F)CC(C1)O2)S(=O)(=O)c1ccc(C#N)cc1`, the D10 is over 5.5 mg/kg.
As to `O=S(=O)(NCCN1CC2CN(CCc3ccccc3F)CC(C1)O2)c1ccc(F)cc1`, the D10 is over 5.5 mg/kg.
In the case of `Cn1cnc(S(=O)(=O)NCCN2CC3CN(CCOc4ccc(C#N)cc4)CC(C2)O3)c1`, the D10 was over 5.5 mg/kg.
For `N#Cc1ccc(OCCN2CC3CN(CCNS(=O)(=O)Cc4ccc(C(F)(F)F)cc4)CC(C2)O3)cc1`, the D10 was over 5.5 mg/kg.
Consider `CN(CCN1CC2CN(CCOc3ccc(C#N)cc3)CC(C1)O2)S(=O)(=O)c1ccc2c(c1)CCO2`, for which the D10 was over 5.5 mg/kg.
With `O=S(=O)(NCCN1CC2CN(CCc3cccc(F)c3)CC(C1)O2)c1ccc(F)cc1`, the D10 is over 5.5 mg/kg.
As to `Cc1noc(C)c1S(=O)(=O)NCCCN1CC2CN(CCCOc3ccc(C#N)cc3)CC(C1)O2`, the D10 is over 5.5 mg/kg.
Regarding `CS(=O)(=O)NCCN1CC2CN(CCCOc3ccc(C#N)cc3)CC(C1)O2`, the D10 is over 5.5 mg/kg.
As for `N#Cc1ccc(S(=O)(=O)NCCCN2CC3CN(CCc4c(F)cccc4F)CC(C2)O3)cc1`, the figure is over 5.5 mg/kg; as for `N#Cc1ccc(S(=O)(=O)NCCCN2CC3CN(CCOc4ccc(C#N)cc4F)CC(C2)O3)cc1`, over 5.5 mg/kg.
In the case of `N#Cc1ccc(OCCN2CC3CN(CCNS(=O)(=O)c4ccc(F)cc4F)CC(C2)O3)cc1`, the D10 is over 5.5 mg/kg.
On to `CN(CCN1CC2CN(CCOc3ccc(C#N)cc3F)CC(C1)O2)S(=O)(=O)c1ccc2c(c1)CCO2`, for which the D10 is over 5.5 mg/kg.
`N#Cc1ccc(S(=O)(=O)NCCN2CC3CN(CCc4ccc(F)cc4)CC(C2)O3)cc1`: the D10 is over 5.5 mg/kg.
In the case of `N#Cc1ccc(S(=O)(=O)NCCCN2CC3CN(Cc4ccccc4)CC(C2)O3)cc1`, the D10 is over 5.5 mg/kg.
Regarding `N#Cc1ccc(S(=O)(=O)NCCN2CC3CN(CCOc4ccccc4F)CC(C2)O3)cc1`, the D10 is over 5.5 mg/kg.
As for `O=S(=O)(NCCN1CC2CN(Cc3ccccc3)CC(C1)O2)c1ccc(F)cc1`, the figure is over 5.5 mg/kg; as for `COc1ccc(S(=O)(=O)NCCN2CC3CN(CCCOc4ccc(C#N)cc4)CC(C2)O3)cc1`, over 5.5 mg/kg; as for `CN(CCN1CC2CN(CCc3ccccc3)CC(C1)O2)S(=O)(=O)c1ccc(C#N)cc1`, over 5.5 mg/kg.
`N#Cc1ccc(CN2CC3CN(CCNS(=O)(=O)c4ccc(C#N)cc4)CC(C2)O3)cc1`: the D10 was over 5.5 mg/kg.
As for `N#Cc1ccc(S(=O)(=O)NCCN2CC3CN(CCc4ccc(Cl)cc4)CC(C2)O3)cc1`, the figure is over 5.5 mg/kg; as for `N#Cc1ccc(S(=O)(=O)NCCN2CC3CN(Cc4nc5ccccc5o4)CC(C2)O3)cc1`, over 5.5 mg/kg.
Then `N#Cc1ccc(OCCN2CC3CN(CCNS(=O)(=O)c4cccc(C#N)c4)CC(C2)O3)cc1`, with over 5.5 mg/kg; and `N#Cc1ccc(OCCN2CC3CN(CCNS(=O)(=O)c4ccccc4F)CC(C2)O3)cc1`, with over 5.5 mg/kg.
Regarding `O=S(=O)(NCCN1CC2CN(CCc3ccccc3)CC(C1)O2)c1ccc(F)cc1`, the D10 is over 5.5 mg/kg.
Take `N#Cc1ccc(S(=O)(=O)NCCN2CC3CN(CCc4c(F)cccc4F)CC(C2)O3)cc1`: the D10 is over 5.5 mg/kg.
In the case of `N#Cc1ccc(CN2CC3CN(CCNS(=O)(=O)c4cccc(C#N)c4)CC(C2)O3)cc1`, the D10 is over 5.5 mg/kg.
As to `N#Cc1ccc(OCCCN2CC3CN(CCNS(=O)(=O)c4ccccc4)CC(C2)O3)cc1`, the D10 is over 5.5 mg/kg.
Regarding `Cc1noc(C)c1S(=O)(=O)NCCN1CC2CN(CCOc3ccc(C#N)cc3F)CC(C1)O2`, the D10 was over 5.5 mg/kg.
Turning to `N#Cc1ccc(S(=O)(=O)NCCN2CC3CN(CCCOc4ccccc4F)CC(C2)O3)cc1`, the D10 is over 5.5 mg/kg.
As for `Cc1nn(C)c(Cl)c1S(=O)(=O)NCCN1CC2CN(CCOc3ccc(C#N)cc3)CC(C1)O2`, the D10 was over 5.5 mg/kg.
With `N#Cc1ccc(OCCCN2CC3CN(CCNS(=O)(=O)c4ccc(C#N)cc4)CC(C2)O3)cc1`, the D10 was over 5.5 mg/kg.
On to `N#Cc1ccc(OCCN2CC3CN(CCCNS(=O)(=O)c4ccccc4)CC(C2)O3)c(F)c1`, for which the D10 is over 5.5 mg/kg.
`N#Cc1ccc(OCCN2CC3CN(CCNS(=O)(=O)c4ccc5c(c4)CCO5)CC(C2)O3)c(F)c1`: the D10 was over 5.5 mg/kg.

(Values after ChEMBL document CHEMBL3880410, “Novel oxabispidine compounds and their use in the treatment of cardiac arrhythmias” (2009).)
